From patent US20250186408A1, “TREATMENT OF PHARMACORESISTANT EPILEPSY” (Katholieke Universiteit Leuven, priority 2021, published 2025)

test system: EKP-induced epileptiform discharges in zebrafish larvae; assay: Zebrafish EKP seizure model, electrophysiology (non-invasive LFP recordings, PSD analysis); type: in vivo, zebrafish (Danio rerio); conditions: 2 μM, 22 h, 7 dpf larvae
Procedure: Non-invasive LFP recordings were measured from the midbrain (optic tectum) of 7 dpf zebrafish larvae pre-incubated with VHC only, EKP only, or compound and EKP. […] These steps occurred at 28° C., while further manipulation and electrophysiological recordings occurred at room temperature (±21° C.) and were performed as described before (16, 27). Each recording lasted 600 seconds.
A power spectral density (PSD) analysis of the recordings was performed using MatLab R2019 software (MATrix LABoratory, USA) as described in (26). The PSD estimate of each LFP recording was summed over each 10 Hz frequency band, ranging from 0 to 160 Hz. Next, the PSD estimates were normalized against the VHC control. Data are expressed as mean±SEM PSD per larva and per condition over the 20-90 Hz region. Outliers were identified via the ROUT test (Q=1%).
PSD analysis assumes that the epileptiform activity manifests as a high-power oscillation at certain frequencies (26). Thus, if epileptic activity occurs often during the recording an elevated PSD estimate should be found at the corresponding frequency band(s) (26).

Row | Compound | effect on EKP-induced elevated PSD (in words)
1 | Cn1nc(C#Cc2cccc(Cl)c2)c2cccnc21 [Compound 10.2, 3-((3-chlorophenyl)ethynyl)-1-methyl-1H-pyrazolo[3,4-b]pyridine] | did not

same assay, conditions: 2 μM, 22 h incubation, 7 dpf larvae; mean, normalized PSD 20-90 Hz

Row | Compound | efficacy against EKP-induced epileptiform discharges 2 μM [%]
2 | CCSC(=CC(=O)c1ccccc1)c1ccc(C(C)(C)C)cc1 (mixture of isomers) [Compound 5.1, (E/Z)-3-(4-(tert-butyl)phenyl)-3-(ethylthio)-1-phenylprop-2-en-1-one] | 36
3 | COc1ccccc1C(O)C#Cc1ccc(C(C)(C)C)cc1 (racemic) [Compound 3.1, rac-3-(4-(tert-butyl)phenyl)-1-(2-methoxyphenyl)prop-2-yn-1-ol] | 79
4 | CC(C)(C)c1ccc(C#CC(O)c2ccccc2O)cc1 (racemic) [Compound 3.2, rac-2-(3-(4-(tert-butyl)phenyl)-1-hydroxyprop-2-yn-1-yl)phenol] | 26
5 | Nc1ncccc1C(O)C#Cc1cccc(Cl)c1 (racemic) [Compound 3.4, rac-1-(2-aminopyridin-3-yl)-3-(3-chlorophenyl)prop-2-yn-1-ol] | 7
6 | Nc1ncccc1C(=O)C#Cc1ccccc1 [Compound 1.1, 1-(2-aminopyridin-3-yl)-3-phenylprop-2-yn-1-one] | 65
7 | Nc1ncccc1C(=O)C#Cc1ccc(F)cc1 [Compound 1.2, 1-(2-aminopyridin-3-yl)-3-(4-fluorophenyl)prop-2-yn-1-one] | 80
8 | CC(C)[Si](C#CC(=O)c1cccnc1N)(C(C)C)C(C)C [Compound 1.3, 1-(2-aminopyridin-3-yl)-3-(triisopropylsilyl)prop-2-yn-1-one] | 67
9 | Nc1ncccc1C(=O)C#CC1CCCCC1 [Compound 1.4, 1-(2-aminopyridin-3-yl)-3-cyclohexylprop-2-yn-1-one] | 69
10 | CCCCCC#CC(=O)c1cccnc1N [Compound 1.5, 1-(2-aminopyridin-3-yl)oct-2-yn-1-one] | 91
11 | CC(C)C#CC(=O)c1cccnc1N [Compound 1.6, 1-(2-aminopyridin-3-yl)-4-methylpent-2-yn-1-one] | 1
12 | Nc1ncccc1C(=O)C#Cc1ccc(Cl)cc1 [Compound 1.7, 1-(2-aminopyridin-3-yl)-3-(4-chlorophenyl)prop-2-yn-1-one] | 70
13 | COC(=O)c1ccc(C#CC(=O)c2cccnc2N)cc1 [Compound 1.8, methyl 4-(3-(2-aminopyridin-3-yl)-3-oxoprop-1-yn-1-yl)benzoate] | 18
14 | COc1ccc(C#CC(=O)c2cccnc2N)cc1 [Compound 1.9, 1-(2-aminopyridin-3-yl)-3-(4-methoxyphenyl)prop-2-yn-1-one] | 35
15 | Nc1ncccc1C(=O)C#Cc1cccc(Cl)c1 [Compound 1.10, 1-(2-aminopyridin-3-yl)-3-(3-chlorophenyl)prop-2-yn-1-one] | −42
16 | Nc1ncccc1C(=O)C#Cc1ccc(C(F)(F)F)cc1 [Compound 1.11, 1-(2-aminopyridin-3-yl)-3-(4-(trifluoromethyl)phenyl)prop-2-yn-1-one] | 47
17 | Cc1ccc(C#CC(=O)c2cccnc2N)cc1 [Compound 1.12, 1-(2-aminopyridin-3-yl)-3-(p-tolyl)prop-2-yn-1-one] | 86
18 | CC(C)(C)c1ccc(C#CC(=O)c2ccccc2N)cc1 [Compound 1.14, 1-(2-aminophenyl)-3-(4-(tert-butyl)phenyl)prop-2-yn-1-one] | 60
19 | CC(C)(C)c1ccc(C#CC(=O)c2cccnc2)cc1 [Compound 1.15, 3-(4-(tert-butyl)phenyl)-1-(pyridin-3-yl)prop-2-yn-1-one] | −49
20 | CC(C)(C)c1ccc(C#CC(=O)c2ccccc2)cc1 [Compound 1.16, 3-(4-(tert-butyl)phenyl)-1-phenylprop-2-yn-1-one] | 38
21 | Nc1ncccc1C(=O)C#Cc1cccc(C(F)(F)F)c1 [Compound 1.17, 1-(2-aminopyridin-3-yl)-3-(3-(trifluoromethyl)phenyl)prop-2-yn-1-one] | 61
22 | COc1ccccc1C(=O)C#Cc1ccc(C(C)(C)C)cc1 [Compound 1.18, 3-(4-(tert-butyl)phenyl)-1-(2-methoxyphenyl)prop-2-yn-1-one] | 71

Row | Compound | efficacy against EKP-induced epileptiform discharges 2 μM [%]
23 | CC(C)(C)c1ccc(C#CC(=O)c2ccccc2O)cc1 [Compound 1.19, 3-(4-(tert-butyl)phenyl)-1-(2-hydroxyphenyl)prop-2-yn-1-one] | −23
24 | CC(C)(C)c1ccc(C#CC(=O)c2ncccc2N)cc1 [Compound 1.24, 1-(3-aminopyridin-2-yl)-3-(4-(tert-butyl)phenyl)prop-2-yn-1-one] | 45
25 | O=C(C#Cc1cccc(Cl)c1)c1cccnc1 [Compound 1.25, 3-(3-chlorophenyl)-1-(pyridin-3-yl)prop-2-yn-1-one] | −43
26 | O=C(C#Cc1cccc(Cl)c1)c1ncc[nH]1 [Compound 1.26, 3-(3-chlorophenyl)-1-(1H-imidazol-2-yl)prop-2-yn-1-one] | 51
27 | CN(C)c1ncccc1C(=O)C#Cc1cccc(Cl)c1 [Compound 1.27, 3-(3-chlorophenyl)-1-(2-(dimethylamino)pyridin-3-yl)prop-2-yn-1-one] | −52
28 | O=C(C#Cc1ccccc1)c1ccccc1 [Compound 1.28, 1,3-diphenylprop-2-yn-1-one] | 25
29 | COc1ccc(C#CC(=O)c2ccccc2)cc1 [Compound 1.29, 3-(4-methoxyphenyl)-1-phenylprop-2-yn-1-one] | 26
30 | Cc1ccc(C#CC(=O)c2ccccc2)cc1 [Compound 1.30, 1-phenyl-3-(p-tolyl)prop-2-yn-1-one] | 28
31 | COc1cccc(C#CC(=O)c2ccccc2)c1 [Compound 1.32, 3-(3-methoxyphenyl)-1-phenylprop-2-yn-1-one] | 29
32 | Cc1cccc(C#CC(=O)c2ccccc2)c1 [Compound 1.33, 1-phenyl-3-(m-tolyl)prop-2-yn-1-one] | 50
33 | O=C(C#Cc1cccc(Cl)c1)c1ccccc1 [Compound 1.34, 3-(3-chlorophenyl)-1-phenylprop-2-yn-1-one] | 21
34 | COc1ccccc1C#CC(=O)c1ccccc1 [Compound 1.36, 3-(2-methoxyphenyl)-1-phenylprop-2-yn-1-one] | 52
35 | Cc1ccccc1C#CC(=O)c1ccccc1 [Compound 1.37, 1-phenyl-3-(o-tolyl)prop-2-yn-1-one] | 28
36 | O=C(C#Cc1ccccc1Cl)c1ccccc1 [Compound 1.38, 3-(2-chlorophenyl)-1-phenylprop-2-yn-1-one] | −63
37 | CC(C)(C)c1ccc(C#CC(=O)c2cccc(F)c2)cc1 [Compound 1.39, 3-(4-(tert-butyl)phenyl)-1-(3-fluorophenyl)prop-2-yn-1-one] | −61
38 | Nc1ccccc1C(=O)C#Cc1cccc(Cl)c1 [Compound 1.40, 1-(2-aminophenyl)-3-(3-chlorophenyl)prop-2-yn-1-one] | 82
39 | CC(C)(C)c1ccc(C#CC=O)cc1 [Compound 2.1, 3-(4-(tert-butyl)phenyl)propiolaldehyde] | 30
40 | Nc1ncccc1C(=O)/C=C/c1cccc(Cl)c1 [Compound 5.2, (E)-1-(2-aminopyridin-3-yl)-3-(3-chlorophenyl)prop-2-en-1-one] | 55
41 | CC(C)(C)c1ccc(C2=CC(c3ccccc3)=CS(C)(=O)=C2)cc1 (stereo not shown) [Compound 9.1, 3-(4-(tert-butyl)phenyl)-1-methyl-5-phenyl-1λ^6-thiopyran 1-oxide] | 51
42 | Cn1nc(C#Cc2cccc(Cl)c2)c2cccnc21 [Compound 10.2, 3-((3-chlorophenyl)ethynyl)-1-methyl-1H-pyrazolo[3,4-b]pyridine] | 19
43 | Clc1cccc(C#Cc2n[nH]c3ccccc23)c1 [Compound 11.1, 3-((3-chlorophenyl)ethynyl)-1H-indazole] | 60

same assay, conditions: 10 μM, 22 h, 7 dpf larvae

Row | Compound | effect on EKP-induced elevated PSD (in words)
44 | Cn1nc(C#Cc2cccc(Cl)c2)c2cccnc21 [Compound 10.2, 3-((3-chlorophenyl)ethynyl)-1-methyl-1H-pyrazolo[3,4-b]pyridine] | significant decrease

same assay, conditions: 10 μM, 22 h incubation, 7 dpf larvae; mean, normalized PSD 20-90 Hz

Row | Compound | efficacy against EKP-induced epileptiform discharges 10 μM [%]
45 | CC(C)(C)c1ccc(C#CC(O)c2ccccc2O)cc1 (racemic) [Compound 3.2, rac-2-(3-(4-(tert-butyl)phenyl)-1-hydroxyprop-2-yn-1-yl)phenol] | 57
46 | Nc1ncccc1C(O)C#Cc1cccc(Cl)c1 (racemic) [Compound 3.4, rac-1-(2-aminopyridin-3-yl)-3-(3-chlorophenyl)prop-2-yn-1-ol] | 7
47 | CC(C)[Si](C#CC(=O)c1cccnc1N)(C(C)C)C(C)C [Compound 1.3, 1-(2-aminopyridin-3-yl)-3-(triisopropylsilyl)prop-2-yn-1-one] | −23
48 | CC(C)(C)c1ccc(C#CC(=O)c2ncccc2N)cc1 [Compound 1.24, 1-(3-aminopyridin-2-yl)-3-(4-(tert-butyl)phenyl)prop-2-yn-1-one] | 11
49 | Cn1nc(C#Cc2cccc(Cl)c2)c2cccnc21 [Compound 10.2, 3-((3-chlorophenyl)ethynyl)-1-methyl-1H-pyrazolo[3,4-b]pyridine] | 76
